From ChEMBL document CHEMBL1201862, “PubChem BioAssay data set” (2004)
Values belong to the compound of their own block, whether it stands above or below them. Activity calls are given as the source filed them.

What was measured:
[1] = NIH3T3 cell viability loss – ATP luminescence, mouse fibroblasts, counter-screen, dose response (AID 2010); assay type: functional, cell-based;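 note: cells exposed to compound for about 90 hours before reading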
[2] = ATP-based viability loss in HeLa cells – cell-based, CellTiter-Glo luminescence, dry powder, set 2, cytotoxicity control, dose response (AID 720593); assay type: functional
cells = assay type: functional, cell-based
Hexokinase HKDC1 = Hexokinase HKDC1 (Homo sapiens, UniProt Q2TB90); assay: inhibition of HKDC1 glucose phosphorylation – biochemical, W721R variant, dose response (AID 504729); assay type: functional
A-375 = assay: MITF: Counter assay: A375 proliferation Measured in Cell-Based System Using Plate Reader - 2084-03_Inhibitor_Dose_DryPowder_Activity. [Related pubchem assays (depositor defined):AID488944]; assay type: functional; details: Homo sapiens
[3] = target: Protein-tyrosine kinase 2-beta (Homo sapiens, UniProt Q14289);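 note: potency of inhibitors of PYK2 kinase phosphorylation of poly-GT substrate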
BJ = assay: BJ-TERT-LT-ST fibroblast viability loss – cell-based, RAS-independent, luminescence, dose response (AID 1935); assay type: functional; details: Homo sapiens;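 note: BJ fibroblasts immortalized with TERT plus LT and ST oncogenes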
CAAX prenyl protease 2 = target: T1, CAAX prenyl protease 2 (Homo sapiens, UniProt Q9Y256); assay: inhibition of Ras-converting CAAX protease Rce1 – biochemical, yeast membranes, quenched-peptide fluorescence, cherry-pick, dose response (AID 588849)
T1 sequence (Q9Y256 whole entry): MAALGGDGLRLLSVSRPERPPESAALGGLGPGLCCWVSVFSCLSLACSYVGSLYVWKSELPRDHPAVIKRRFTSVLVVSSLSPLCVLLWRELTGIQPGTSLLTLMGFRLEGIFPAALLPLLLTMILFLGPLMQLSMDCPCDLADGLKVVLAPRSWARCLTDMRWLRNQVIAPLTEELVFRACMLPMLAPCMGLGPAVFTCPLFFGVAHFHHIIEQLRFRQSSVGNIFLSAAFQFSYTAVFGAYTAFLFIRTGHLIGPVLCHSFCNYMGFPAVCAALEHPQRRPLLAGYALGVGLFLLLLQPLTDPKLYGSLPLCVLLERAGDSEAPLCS

[4] = activation of miR-122 Renilla sensor silencing – cell-based, Huh7 psiCHECK-miR122, Renilla luciferase, cherry-picked, dose response (AID 651956); assay type: functional;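 note: huh7 hepatoma cells stably carrying a psiCHECK-2 miR-122 sensor plasmid; renilla luciferase signal reporting endogenous miR-122 activity after 48 h compound exposure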
[5] = general mammalian cell viability loss – inhibitor set, cherry-pick, set 2, cytotoxicity control for miR-122 modulator project, dose response (AID 720697); assay type: functional, cell-based
[6] = target: High affinity nerve growth factor receptor (Homo sapiens, UniProt P04629); assay type: functional;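 note: NTRK1 tested as one member of a kinome-wide profiling panel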
[7] = target: cAMP-dependent protein kinase catalytic subunit alpha (Homo sapiens, UniProt P17612); assay type: functional
[8] = target: Cyclin-dependent kinase 2 (Homo sapiens, UniProt P24941); assay type: functional;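 note: CDK2 measured as one member of a broad kinome profiling panel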
[9] = target: Mitogen-activated protein kinase kinase kinase kinase 5 (Homo sapiens, UniProt Q9Y4K4); assay type: functional;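 note: measured as one member of a kinome-spanning kinase panel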
[10] = target: Tyrosine-protein kinase SYK (Homo sapiens, UniProt P43405); assay type: functional
[11] = target: Homeodomain-interacting protein kinase 2 (Homo sapiens, UniProt Q9H2X6); assay type: functional;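 note: measured within a kinome-wide kinase profiling panel, HIPK2 being one panel member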
[12] = target: Cyclin-dependent kinase 9 (Homo sapiens, UniProt P50750); assay type: functional;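 note: value from the CDK9 entry of a kinome-spanning kinase panel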
[13] = target: Serine/threonine-protein kinase Chk1 (Homo sapiens, UniProt O14757); assay type: functional;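 note: measured as one member of a kinome-wide kinase profiling panel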
LIM domain kinase 1 = LIM domain kinase 1 (Homo sapiens, UniProt P53667); assay: Navigating the Kinome. Panel member name: LIMK1; assay type: functional
[14] = target: T2, Mannose-6-phosphate isomerase (Homo sapiens, UniProt P34949); assay: MPI inhibition at elevated mannose 6-phosphate – biochemical, fluorescence intensity, high mannose 6-phosphate, primary screen (AID 1220)
T2 sequence (P34949 whole entry): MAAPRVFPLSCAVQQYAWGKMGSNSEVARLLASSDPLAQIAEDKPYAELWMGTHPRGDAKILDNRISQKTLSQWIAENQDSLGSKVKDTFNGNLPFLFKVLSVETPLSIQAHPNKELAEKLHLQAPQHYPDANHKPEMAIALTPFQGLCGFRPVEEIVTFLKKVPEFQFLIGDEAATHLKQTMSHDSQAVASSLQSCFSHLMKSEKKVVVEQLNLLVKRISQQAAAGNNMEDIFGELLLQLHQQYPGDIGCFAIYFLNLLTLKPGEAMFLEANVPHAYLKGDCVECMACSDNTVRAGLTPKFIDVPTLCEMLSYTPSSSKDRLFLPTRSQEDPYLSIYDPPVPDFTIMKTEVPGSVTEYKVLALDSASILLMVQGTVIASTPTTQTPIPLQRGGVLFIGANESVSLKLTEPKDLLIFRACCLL

Chain of Homeodomain-interacting protein kinase 2 (Q9H2X6 whole entry): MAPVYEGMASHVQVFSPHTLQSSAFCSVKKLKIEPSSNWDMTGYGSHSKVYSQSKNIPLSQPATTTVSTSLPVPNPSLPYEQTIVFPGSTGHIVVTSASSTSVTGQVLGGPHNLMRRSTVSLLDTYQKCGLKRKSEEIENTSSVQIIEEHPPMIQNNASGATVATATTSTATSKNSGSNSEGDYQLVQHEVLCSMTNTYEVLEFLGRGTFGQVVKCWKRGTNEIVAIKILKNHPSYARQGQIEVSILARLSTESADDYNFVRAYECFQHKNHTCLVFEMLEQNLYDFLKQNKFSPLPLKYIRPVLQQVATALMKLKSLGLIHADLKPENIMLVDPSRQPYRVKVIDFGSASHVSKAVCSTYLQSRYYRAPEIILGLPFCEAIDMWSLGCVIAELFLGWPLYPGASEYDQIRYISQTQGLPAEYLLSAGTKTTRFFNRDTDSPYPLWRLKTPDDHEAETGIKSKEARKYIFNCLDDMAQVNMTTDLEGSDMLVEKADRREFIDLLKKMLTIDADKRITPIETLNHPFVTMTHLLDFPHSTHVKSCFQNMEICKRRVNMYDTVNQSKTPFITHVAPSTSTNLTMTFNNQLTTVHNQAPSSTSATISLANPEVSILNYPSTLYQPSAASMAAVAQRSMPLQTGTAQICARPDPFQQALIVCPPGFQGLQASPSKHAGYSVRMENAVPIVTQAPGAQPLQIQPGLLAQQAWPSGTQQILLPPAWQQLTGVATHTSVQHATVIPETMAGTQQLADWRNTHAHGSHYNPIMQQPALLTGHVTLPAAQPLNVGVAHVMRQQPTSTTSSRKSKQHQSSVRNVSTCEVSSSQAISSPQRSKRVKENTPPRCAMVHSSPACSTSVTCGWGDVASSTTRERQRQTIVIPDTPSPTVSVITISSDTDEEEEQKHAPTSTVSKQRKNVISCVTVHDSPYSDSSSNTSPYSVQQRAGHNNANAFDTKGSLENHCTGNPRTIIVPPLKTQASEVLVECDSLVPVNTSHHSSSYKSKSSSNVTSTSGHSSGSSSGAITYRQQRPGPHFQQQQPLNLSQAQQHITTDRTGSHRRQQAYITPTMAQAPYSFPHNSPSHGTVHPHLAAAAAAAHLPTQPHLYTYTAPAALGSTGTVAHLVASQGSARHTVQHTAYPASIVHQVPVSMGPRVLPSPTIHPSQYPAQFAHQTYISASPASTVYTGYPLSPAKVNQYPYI
Chain of Mitogen-activated protein kinase kinase kinase kinase 5 (Q9Y4K4 whole entry): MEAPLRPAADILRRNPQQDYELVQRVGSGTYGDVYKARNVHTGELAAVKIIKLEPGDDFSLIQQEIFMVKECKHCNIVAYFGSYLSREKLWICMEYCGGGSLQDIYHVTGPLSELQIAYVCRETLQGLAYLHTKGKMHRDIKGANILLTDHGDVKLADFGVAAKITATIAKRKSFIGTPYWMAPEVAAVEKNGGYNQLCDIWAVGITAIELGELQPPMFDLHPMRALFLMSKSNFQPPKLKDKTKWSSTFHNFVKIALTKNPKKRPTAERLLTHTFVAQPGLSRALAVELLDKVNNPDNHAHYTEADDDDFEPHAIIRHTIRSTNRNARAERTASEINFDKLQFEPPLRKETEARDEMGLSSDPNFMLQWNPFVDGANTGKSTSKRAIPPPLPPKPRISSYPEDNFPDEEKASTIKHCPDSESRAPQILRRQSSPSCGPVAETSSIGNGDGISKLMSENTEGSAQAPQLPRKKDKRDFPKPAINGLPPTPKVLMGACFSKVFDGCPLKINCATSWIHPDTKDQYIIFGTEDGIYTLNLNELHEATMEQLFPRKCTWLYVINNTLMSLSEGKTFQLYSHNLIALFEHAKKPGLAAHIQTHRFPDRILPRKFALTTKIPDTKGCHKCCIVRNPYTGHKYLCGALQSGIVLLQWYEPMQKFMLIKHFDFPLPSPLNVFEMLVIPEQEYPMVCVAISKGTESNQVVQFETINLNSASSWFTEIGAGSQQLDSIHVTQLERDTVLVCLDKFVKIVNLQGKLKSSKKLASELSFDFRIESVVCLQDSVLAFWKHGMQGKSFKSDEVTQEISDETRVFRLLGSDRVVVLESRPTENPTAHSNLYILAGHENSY
Chain of High affinity nerve growth factor receptor (P04629 whole entry): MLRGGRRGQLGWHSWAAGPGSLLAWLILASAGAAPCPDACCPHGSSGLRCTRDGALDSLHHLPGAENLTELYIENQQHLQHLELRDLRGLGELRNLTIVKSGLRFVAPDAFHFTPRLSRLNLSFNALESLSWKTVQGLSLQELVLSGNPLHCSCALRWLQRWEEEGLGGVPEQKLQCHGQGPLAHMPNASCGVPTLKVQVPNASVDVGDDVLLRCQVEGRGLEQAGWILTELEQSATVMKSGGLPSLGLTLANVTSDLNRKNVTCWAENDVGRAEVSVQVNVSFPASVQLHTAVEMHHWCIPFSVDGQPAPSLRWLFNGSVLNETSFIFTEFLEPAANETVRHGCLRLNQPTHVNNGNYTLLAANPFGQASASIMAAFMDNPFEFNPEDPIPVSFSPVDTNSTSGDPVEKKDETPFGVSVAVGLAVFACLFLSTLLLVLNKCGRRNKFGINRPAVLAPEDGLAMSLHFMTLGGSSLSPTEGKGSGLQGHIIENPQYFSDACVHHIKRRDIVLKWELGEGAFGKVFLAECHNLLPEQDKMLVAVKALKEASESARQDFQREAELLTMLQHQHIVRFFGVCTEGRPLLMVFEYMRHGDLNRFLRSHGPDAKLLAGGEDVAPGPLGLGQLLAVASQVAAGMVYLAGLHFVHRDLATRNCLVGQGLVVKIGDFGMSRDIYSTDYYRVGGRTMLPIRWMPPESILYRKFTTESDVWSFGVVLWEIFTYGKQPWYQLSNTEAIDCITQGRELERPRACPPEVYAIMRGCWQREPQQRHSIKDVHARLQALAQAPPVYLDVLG
Chain of Cyclin-dependent kinase 9 (P50750 whole entry): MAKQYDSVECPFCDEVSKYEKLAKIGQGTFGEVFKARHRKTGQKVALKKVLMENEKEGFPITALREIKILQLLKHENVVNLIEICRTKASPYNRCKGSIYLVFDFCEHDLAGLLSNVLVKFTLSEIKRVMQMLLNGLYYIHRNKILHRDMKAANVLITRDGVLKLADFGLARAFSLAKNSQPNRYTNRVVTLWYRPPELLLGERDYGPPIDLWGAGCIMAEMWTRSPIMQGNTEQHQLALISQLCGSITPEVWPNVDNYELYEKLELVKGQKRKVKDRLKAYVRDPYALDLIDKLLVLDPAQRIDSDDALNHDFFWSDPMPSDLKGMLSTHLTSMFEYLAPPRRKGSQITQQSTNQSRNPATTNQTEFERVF
Chain of Protein-tyrosine kinase 2-beta (Q14289 whole entry): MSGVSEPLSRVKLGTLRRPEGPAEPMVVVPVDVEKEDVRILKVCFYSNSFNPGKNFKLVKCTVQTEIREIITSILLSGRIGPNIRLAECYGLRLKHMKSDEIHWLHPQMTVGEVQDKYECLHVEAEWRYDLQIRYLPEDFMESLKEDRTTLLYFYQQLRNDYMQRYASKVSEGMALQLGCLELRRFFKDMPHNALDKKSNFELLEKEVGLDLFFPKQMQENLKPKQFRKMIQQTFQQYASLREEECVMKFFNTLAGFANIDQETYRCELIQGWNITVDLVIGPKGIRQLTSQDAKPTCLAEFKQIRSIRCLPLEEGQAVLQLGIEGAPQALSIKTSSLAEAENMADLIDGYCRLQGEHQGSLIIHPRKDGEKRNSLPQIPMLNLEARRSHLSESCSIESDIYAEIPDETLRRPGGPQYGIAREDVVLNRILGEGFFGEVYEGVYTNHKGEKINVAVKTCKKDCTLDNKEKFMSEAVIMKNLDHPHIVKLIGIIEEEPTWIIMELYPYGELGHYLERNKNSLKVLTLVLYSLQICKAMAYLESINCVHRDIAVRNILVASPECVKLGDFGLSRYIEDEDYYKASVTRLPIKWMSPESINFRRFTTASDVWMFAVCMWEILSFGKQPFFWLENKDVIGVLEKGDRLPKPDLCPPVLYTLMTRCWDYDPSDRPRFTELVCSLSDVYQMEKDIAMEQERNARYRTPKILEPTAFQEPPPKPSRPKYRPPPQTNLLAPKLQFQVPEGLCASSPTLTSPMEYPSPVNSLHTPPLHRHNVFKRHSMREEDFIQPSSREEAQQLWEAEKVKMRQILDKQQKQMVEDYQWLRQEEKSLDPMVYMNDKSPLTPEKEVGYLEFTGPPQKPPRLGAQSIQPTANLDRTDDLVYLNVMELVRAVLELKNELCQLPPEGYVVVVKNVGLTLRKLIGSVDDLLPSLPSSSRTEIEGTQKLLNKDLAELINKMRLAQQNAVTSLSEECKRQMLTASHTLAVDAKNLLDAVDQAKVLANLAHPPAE
Chain of LIM domain kinase 1 (P53667 whole entry, the tested form may be a part): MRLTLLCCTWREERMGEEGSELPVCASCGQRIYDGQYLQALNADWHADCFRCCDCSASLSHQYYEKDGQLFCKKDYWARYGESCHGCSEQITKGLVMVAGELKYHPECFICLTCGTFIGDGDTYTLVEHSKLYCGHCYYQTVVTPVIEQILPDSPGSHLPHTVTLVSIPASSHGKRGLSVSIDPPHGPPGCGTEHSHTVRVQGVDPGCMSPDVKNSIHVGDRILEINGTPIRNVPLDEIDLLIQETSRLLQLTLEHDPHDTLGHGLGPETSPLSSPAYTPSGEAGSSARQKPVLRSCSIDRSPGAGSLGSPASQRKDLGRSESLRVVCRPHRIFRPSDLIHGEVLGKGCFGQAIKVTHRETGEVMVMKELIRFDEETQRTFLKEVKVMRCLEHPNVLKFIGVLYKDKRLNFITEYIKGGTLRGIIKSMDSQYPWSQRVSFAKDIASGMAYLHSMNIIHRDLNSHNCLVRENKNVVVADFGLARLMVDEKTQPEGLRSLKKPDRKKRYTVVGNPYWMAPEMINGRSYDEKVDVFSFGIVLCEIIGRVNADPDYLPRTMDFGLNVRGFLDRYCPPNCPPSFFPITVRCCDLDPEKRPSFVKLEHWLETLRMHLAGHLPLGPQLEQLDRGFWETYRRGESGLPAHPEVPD

SMILES: CC(C)CC(=O)NC(c1cccs1)c1ccc2cccnc2c1O (centres undefined)
EC50 [1]: 1.48 µM (active)
AC50 [2]: 20.3 µM (active)
EC50 (cells): > 350 µM (not active)

SMILES: CCOC(=O)c1ccc(NC2=CC(=O)C(=O)c3ccccc32)cc1
IC50 (Hexokinase HKDC1): 43.9 µM (inactive)
AC50 (A-375): 6.65 µM (active)
IC50 [3]: > 69.5 µM (not active)

SMILES: OC(CNCCC1C=Nc2ccccc21)Cn1c2ccc(Cl)cc2c2cc(Cl)ccc21 (centres undefined)
EC50 (BJ): 5.42 µM (inconclusive)
AC50 (CAAX prenyl protease 2): 79.3 µM (active)
AC50 [4]: 12.8 µM (active)
AC50 [5]: 7.91 µM (active)

Ki [6]: > 3.16 µM (inactive)
Ki [7]: 0.00794 µM (active)
pKi [7]: 8.1
Ki [8]: 0.0316 µM (active)
pKi [8]: 7.5
Ki [9]: 0.0501 µM (active)
pKi [9]: 7.3
Ki [10]: > 1.58 µM (inactive)
Ki [11]: 0.0398 µM (active)
pKi [11]: 7.4
SMILES: NC1CCC(Nc2nc(Cl)cc(-c3c[nH]c4ncccc34)n2)CC1 (centres undefined)

Ki [12]: > 1.58 µM (inactive)
Ki [13]: > 3.16 µM (inactive)
Ki (LIM domain kinase 1): > 3.16 µM (inactive)
SMILES: O=C(O)C1CN(Cc2ccc(OCc3ccccc3)cc2Cl)C1

SMILES: Cc1ccccc1-c1cc2c(nn1)-c1ccccc1C2=O
IC50 [14]: > 50 µM (not active)
